Read-outs that look alike come from different tables or passages of the source.
Experiments:
HIV-1 clinical isolates = assay: Antiviral activity against HIV-1 clinical isolates in PHA-stimulated human PBMCs; type: cell-based
Method: (§1) The antiretroviral activity of the compound of Formula (Ia) was tested against a panel of 22 HIV-1 clinical isolates of HIV-1 and two HIV-2 isolates in freshly isolated, PHA-stimulated human peripheral blood mononuclear cells (PBMCs). The HIV-1 isolates included representative strains from subtypes A, B, C, D, E, F, G, N, O, AE, and AG. Following a 7-day infection, virus production was determined by measuring reverse transcriptase activity in cell-free culture supernatants.

HIV-2 isolates = assay: Antiviral activity against HIV-2 isolates in PHA-stimulated human PBMCs; type: cell-based; details: Human immunodeficiency virus 2, PBMC, 168 h, 7-day infection, RT activity readout, mean of triplicate
Method: as §1

NRTI-resistant viruses = type: cell-based, HIV-1; details: Mutant/WT (LAI) EC50 ratio, MT-2 cells, mean ± s.d. of three experiments
Method: (§2) The antiviral activity of the compound of Formula (a) was tested against a panel of known HIV-1 mutants resistant to HIV PIs (ATV and DRV), NRTIs (TFV and FTC), NNRTIs (RPV and EFV) or INSTIs (RAL, EVG and DTG) using a cytopathic antiviral assay in MT-2 cells.

WT HXB2D = assay: Cytopathic antiviral assay in MT-2 cells, wild type HXB2D; type: cell-based, HIV-1; details: Human immunodeficiency virus 1, MT2, read-out: WT HXB2D EC50, MT-2 cells, mean ± s.d. of three experiments in triplicate
Method: as §2, with “cells. The compound of Formula (Ia) was fully active against all tested mutants resistant to PIs (Table 11), NRTIs (Table 12), NNRTIs (Table 13) or INSTIs (Table 14).” for “cells.”

PI-resistant viruses = assay: Cytopathic antiviral assay in MT-2 cells, PI-resistant viruses; type: cell-based, HIV-1; details: Mutant/WT (HXB2D) EC50 ratio, mean ± s.d. of three experiments
Method: as §2, with “cells. The compound of Formula (Ia) was fully active against all tested mutants resistant to PIs (Table 11), NRTIs (Table 12), NNRTIs (Table 13) or INSTIs (Table 14).” for “cells.”

NNRTI-resistant viruses = assay: Cytopathic antiviral assay in MT-2 cells, NNRTI-resistant viruses; type: cell-based, HIV-1; details: Mutant/WT (HXB2D) EC50 ratio, mean ± s.d. of three experiments
Method: as §2, with “cells. The compound of Formula (Ia) was fully active against all tested mutants resistant to PIs (Table 11), NRTIs (Table 12), NNRTIs (Table 13) or INSTIs (Table 14).” for “cells.”

`Cc1cn([C@H]2C[C@H](N=[N+]=[N-])[C@@H](CO)O2)c(=O)[nH]c1=O` [AZT, zidovudine] showed an EC50 (HIV-1 clinical isolates; Human immunodeficiency virus 1, BAL, PBMC, 168 h, read-out: EC50 in human PBMCs, HIV-1 subtype B isolate Ba-L, 7-day infection, RT activity readout, mean of triplicate) of 43.2 nM, an EC50 (HIV-1 clinical isolates; Human immunodeficiency virus 1, PBMC, 168 h, read-out: EC50 in human PBMCs, HIV-1 CRF01_AE isolate 90TH_CM235, 7-day infection, RT activity readout, mean of triplicate) of 10.7 nM and an EC50 (HIV-1 clinical isolates; Human immunodeficiency virus 1, PBMC, 168 h, read-out: EC50 in human PBMCs, HIV-1 CRF02_AG isolate 01CM0008BBY, 7-day infection, RT activity readout, mean of triplicate) of 8.21 nM. It also gave an EC50 (HIV-1 clinical isolates; Human immunodeficiency virus 1, PBMC, 168 h, read-out: EC50 in human PBMCs, HIV-1 CRF02_AG isolate 91DJ263, 7-day infection, RT activity readout, mean of triplicate) of 34.9 nM, an EC50 (HIV-1 clinical isolates; Human immunodeficiency virus 1, PBMC, 168 h, read-out: EC50 in human PBMCs, HIV-1 Group N isolate YBF30, 7-day infection, RT activity readout, mean of triplicate) of 8.96 nM and an EC50 (HIV-1 clinical isolates; Human immunodeficiency virus 1, PBMC, 168 h, read-out: EC50 in human PBMCs, HIV-1 Group O isolate BCF01, 7-day infection, RT activity readout, mean of triplicate) of 10.5 nM. It also gave an EC50 (HIV-1 clinical isolates; Human immunodeficiency virus 1, PBMC, 168 h, read-out: EC50 in human PBMCs, HIV-1 subtype A isolate 92UG031, 7-day infection, RT activity readout, mean of triplicate) of 51.6 nM, an EC50 (HIV-1 clinical isolates; Human immunodeficiency virus 1, PBMC, 168 h, read-out: EC50 in human PBMCs, HIV-1 subtype A isolate 92UG037, 7-day infection, RT activity readout, mean of triplicate) of 21.7 nM and an EC50 (HIV-1 clinical isolates; Human immunodeficiency virus 1, PBMC, 168 h, read-out: EC50 in human PBMCs, HIV-1 subtype B isolate 89BZ_167, 7-day infection, RT activity readout, mean of triplicate) of 10.1 nM. The EC50 (HIV-1 clinical isolates; Human immunodeficiency virus 1, PBMC, 168 h, read-out: EC50 in human PBMCs, HIV-1 subtype B isolate 90US_873, 7-day infection, RT activity readout, mean of triplicate) was 13.2 nM, the EC50 (HIV-1 clinical isolates; Human immunodeficiency virus 1, PBMC, 168 h, read-out: EC50 in human PBMCs, HIV-1 subtype B isolate 91US001, 7-day infection, RT activity readout, mean of triplicate) was 20.3 nM and the EC50 (HIV-1 clinical isolates; Human immunodeficiency virus 1, PBMC, 168 h, read-out: EC50 in human PBMCs, HIV-1 subtype B isolate 91US004, 7-day infection, RT activity readout, mean of triplicate) was 19.7 nM. It also gave an EC50 (HIV-1 clinical isolates; Human immunodeficiency virus 1, PBMC, 168 h, read-out: EC50 in human PBMCs, HIV-1 subtype B isolate 96TH_NP1538, 7-day infection, RT activity readout, mean of triplicate) of 4.1 nM, an EC50 (HIV-1 clinical isolates; Human immunodeficiency virus 1, PBMC, 168 h, read-out: EC50 in human PBMCs, HIV-1 subtype B isolate JR-CSF, 7-day infection, RT activity readout, mean of triplicate) of 4.53 nM and an EC50 (HIV-1 clinical isolates; Human immunodeficiency virus 1, PBMC, 168 h, read-out: EC50 in human PBMCs, HIV-1 subtype C isolate 92BR025, 7-day infection, RT activity readout, mean of triplicate) of 16.9 nM. It also gave an EC50 (HIV-1 clinical isolates; Human immunodeficiency virus 1, PBMC, 168 h, read-out: EC50 in human PBMCs, HIV-1 subtype C isolate 98US_MSC5016, 7-day infection, RT activity readout, mean of triplicate) of 37.8 nM, an EC50 (HIV-1 clinical isolates; Human immunodeficiency virus 1, PBMC, 168 h, read-out: EC50 in human PBMCs, HIV-1 subtype D isolate 92UG001, 7-day infection, RT activity readout, mean of triplicate) of 7.29 nM and an EC50 (HIV-1 clinical isolates; Human immunodeficiency virus 1, PBMC, 168 h, read-out: EC50 in human PBMCs, HIV-1 subtype D isolate 98UG_57128, 7-day infection, RT activity readout, mean of triplicate) of 6.61 nM. The EC50 (HIV-1 clinical isolates; Human immunodeficiency virus 1, PBMC, 168 h, read-out: EC50 in human PBMCs, HIV-1 subtype E isolate CMU02, 7-day infection, RT activity readout, mean of triplicate) was 8.13 nM, the EC50 (HIV-1 clinical isolates; Human immunodeficiency virus 1, PBMC, 168 h, read-out: EC50 in human PBMCs, HIV-1 subtype E isolate CMU08, 7-day infection, RT activity readout, mean of triplicate) was 34.1 nM and the EC50 (HIV-1 clinical isolates; Human immunodeficiency virus 1, PBMC, 168 h, read-out: EC50 in human PBMCs, HIV-1 subtype F isolate 93BR020, 7-day infection, RT activity readout, mean of triplicate) was 25.1 nM. For the same compound, the EC50 (HIV-1 clinical isolates; Human immunodeficiency virus 1, PBMC, 168 h, read-out: EC50 in human PBMCs, HIV-1 subtype G isolate JV1083, 7-day infection, RT activity readout, mean of triplicate) was 20.5 nM, the EC50 (HIV-1 clinical isolates; Human immunodeficiency virus 1, PBMC, read-out: HIV-1 EC50 Mean ± s.d., mean over the 22 HIV-1 clinical isolates, human PBMCs) was 19 ± 13.5 nM and the EC50 (HIV-1 clinical isolates; Human immunodeficiency virus 1, PBMC, read-out: HIV-1 EC50 Median, median over the 22 HIV-1 clinical isolates, human PBMCs) was 15.1 nM. For the same compound, the EC50 (HIV-1 clinical isolates; Human immunodeficiency virus 1, PBMC, read-out: HIV-1 EC50 Range, range over the 22 HIV-1 clinical isolates, human PBMCs) was 4.1 to 51.6 nM, the EC50 (HIV-2 isolates; HIV-2 isolate CBL-20) was 14.3 nM and the EC50 (HIV-2 isolates; HIV-2 isolate CDC310319) was 28.8 nM.
With `C[C@H](Cn1cnc2c(N)ncnc21)OCP(=O)(O)O` [TFV, tenofovir] the “EC50 Fold-Change” value (NRTI-resistant viruses; 6TAMs) was 3.0 ± 1.1, the “EC50 Fold-Change” value (NRTI-resistant viruses; K65R) was 2.4 ± 1.0 and the “EC50 Fold-Change” value (NRTI-resistant viruses; M184V) was 0.9 ± 1.0.
`CC(C)CN(C[C@@H](O)[C@H](Cc1ccccc1)NC(=O)O[C@H]1CO[C@H]2OCC[C@H]21)S(=O)(=O)c1ccc(N)cc1` [DRV, darunavir] was tested, and the EC50 (WT HXB2D; PI-resistance panel (Table 11)) was 2.82 ± 0.47 nM, the “EC50 Fold-Change” value (PI-resistant viruses; G48V/V82A/L90M) was 0.5 ± 0.2 and the “EC50 Fold-Change” value (PI-resistant viruses; G48V/V82S) was 0.3 ± 0.1. For the same compound, the “EC50 Fold-Change” value (PI-resistant viruses; I50V) was 31.6 ± 22.8 and the “EC50 Fold-Change” value (PI-resistant viruses; I84V/L90M) was 1.9 ± 0.9.
With `Cc1cc(/C=C/C#N)cc(C)c1Nc1ccnc(Nc2ccc(C#N)cc2)n1` [RPV, rilpivirine] the EC50 (WT HXB2D; NNRTI-resistance panel (Table 13)) was 0.93 ± 0.23 nM, the “EC50 Fold-Change” value (NNRTI-resistant viruses; K103N) was 0.7 ± 0.3 and the “EC50 Fold-Change” value (NNRTI-resistant viruses; K103N/Y181C) was 3.2 ± 1.4. For the same compound, the “EC50 Fold-Change” value (NNRTI-resistant viruses; L100I/K103N) was 7.8 ± 2.6, the “EC50 Fold-Change” value (NNRTI-resistant viruses; Y181C) was 5.9 ± 4.3 and the “EC50 Fold-Change” value (NNRTI-resistant viruses; Y188L) was 6.9 ± 1.3.

— patent publication US12594267B2, “Capsid inhibitors for the treatment of HIV” (Gilead Sciences, Inc., priority 2018, dated 2026)
